The target in one assay is Human Cot (Homo sapiens (Human), UniProt P41279). Kind of assay: High Throughput Cot Biochemical Assay. Conditions: Cot HTRF (TR-FRET) biochemical assay. (TR-FRET usually uses a lanthanide donor and a delayed reading to cut background.)
Another assay deals with TNFα. In words: Cot Monocyte TNFα Cell Based Assay.
Where [1] appears, read: Homo sapiens, Monocyte, read-out: EC50 TNF, LPS-stimulated human monocytes, TNFα.
Setting [2] is: read-out: EC50 TNF, LPS-stimulated human monocytes, TNFα.

As usually defined, the IC50 is the midpoint of a concentration-inhibition curve. The EC50 is the concentration needed to bring the measured effect to its halfway point.

Read-outs that look alike come from different tables or passages of the source.

Human Cot, sequence (P41279 30-397): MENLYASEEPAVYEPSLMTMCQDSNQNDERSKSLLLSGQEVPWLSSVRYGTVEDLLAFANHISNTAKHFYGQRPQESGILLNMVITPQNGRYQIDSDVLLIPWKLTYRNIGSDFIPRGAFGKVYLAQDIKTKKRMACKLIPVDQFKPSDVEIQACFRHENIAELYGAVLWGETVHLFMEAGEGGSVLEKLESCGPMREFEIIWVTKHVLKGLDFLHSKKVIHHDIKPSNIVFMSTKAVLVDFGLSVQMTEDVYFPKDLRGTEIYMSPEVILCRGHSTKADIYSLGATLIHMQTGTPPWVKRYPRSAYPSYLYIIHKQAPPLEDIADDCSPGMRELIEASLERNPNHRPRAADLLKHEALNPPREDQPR
Method for TNFα: The cell suspension was then plated at a density of 5,000 cells/well onto black 384 well Greiner clear bottom plates. Plates were pre-spotted with test compounds and serially diluted in DMSO where 200 nL/well were delivered using the Echo 550 acoustic liquid dispenser (Labcyte®) for a final DMSO concentration of 0.5%. Plated cells were treated with compound for 1 hour at 37° C. Cells were then stimulated with 50 pg/ml of LPS (Sigma) excluding outside columns of plate used for unstimulated cell control wells. Cells were incubated for an additional 4 hours at 37° C. Cells were then spun out of the media and 5 μl of sample were taken and analyzed for total TNFα content using the TR-FRET Human TNFα detection system (CisBio). This system utilizes two labeled antibodies (cryptate and XL665) that bind to two different epitopes of the TNFα molecule and produce FRET signal proportional to the concentration of TNFα in the sample. […] Plates were covered with clear seals and incubated at room temp overnight. […] Percent of control was calculated as follows: % Control=100×(RatioSample−Ratio0% Stimulation)/(Ratio100% Stimulation−Ratio0% Stimulation) where unstimulated cells (0% stimulation) were the negative control and stimulated cells (100% stimulation) were used as the positive control.

Consider `Cc1n[nH]c2cccc([C@H](Nc3cc(C#N)c4ncc(C#N)c(NCC(C)(C)C)c4c3)c3cn(C4(C(F)(F)F)CC4)nn3)c12` [Example 528, (S)-6-(((3-methyl-1H-indazol-4-yl)(1-(1-(trifluoro-methyl)cyclopropyl)-1H-1,2,3-triazol-4-yl)methyl)amino)-4-(neopentylamino)quinoline-3,8-dicarbonitrile], for which the concentration for half-maximal inhibition (IC50) against Human Cot (IC50 HTRF) came to 3 nM. In addition, the EC50 with TNFα (setting [1]) worked out at 60 nM.
For `Cn1ncc2c([C@H](Nc3cc(C#N)c4ncc(C#N)c(NCC(C)(C)C)c4c3)c3cn(C4(C)CC4)nn3)cccc21` [Example 529, (S)-6-(((1-methyl-1H-indazol-4-yl)(1-(1-methylcyclopropyl)-1H-1,2,3-triazol-4-yl)methyl)amino)-4-(neopentylamino)-quinoline-3,8-dicarbonitrile], in that order: 2 nM and 50 nM.
Consider `Cc1nc(F)ccc1[C@H](Nc1cc(Cl)c2ncc(C#N)c(NCC(C)(C)C)c2c1)c1cn(C(C)(C)C)nn1` [Example 530, (S)-6-(((1-(tert-butyl)-1H-1,2,3-triazol-4-yl)(6-fluoro-2-methylpyridin-3-yl)methyl- )amino)-8-chloro-4-(neopentylamino)-quinoline-3-carbonitrile], for which the IC50 on Human Cot (read-out: IC50 HTRF) was 3 nM. Further, the EC50 in the assay on TNFα (setting [2]) came to 70 nM.
Turning to `Cc1nc(F)ccc1[C@H](Nc1cc(Cl)c2ncc(C#N)c(NCC(C)(C)C)c2c1)c1cn(C(C)(C)CF)nn1` [Example 531, (S)-8-chloro-6-(((1-(1-fluoro-2-methyl-propan-2-yl)-1H-1,2,3-triazol-4-yl)(6-fluoro-2-methylpyridin-3-yl)methyl)amino)-4-(neopentylamino)quinoline-3-carbonitrile], half-maximal inhibition at Human Cot (IC50 HTRF) (IC50) required 3 nM. The concentration giving a half-maximal response (EC50) in the assay on TNFα (setting [1]) came to 70 nM.
Take `Cc1nc(F)ccc1[C@H](Nc1cc(Cl)c2ncc(C#N)c(NCC(C)(C)C)c2c1)c1cn(CC(F)F)nn1` [Example 532, (S)-8-chloro-6-(((1-(2,2-difluoroethyl)-1H-1,2,3-triazol-4-yl)(6-fluoro-2-methyl-pyridin-3-yl)methyl)amino)-4-(neopentyl-amino)quinoline-3-carbonitrile]: inhibition on Human Cot (IC50 HTRF) was half-maximal at 3 nM (IC50). Besides, the EC50 in the assay with TNFα (setting [1]) is 78 nM.
For `CC(C)(C)CNc1c(C#N)cnc2c(Cl)cc(N[C@H](c3cn(C4(C(F)(F)F)CC4)nn3)c3cccc4ccncc34)cc12` [Example 533, (S)-8-chloro-6-((isoquinolin-8-yl(1-(1-(trifluoromethyl)cyclopropyl)-1H-1,2,3-triazol-4-yl)methyl)amino)-4-(neopentyl-amino)quinoline-3-carbonitrile], in that order: 3 nM and 96 nM.
For `Cc1nc(F)ccc1[C@H](Nc1cc(Cl)c2ncc(C#N)c(NCC(C)(C)CO)c2c1)c1cn(C2(C(F)(F)F)CC2)nn1` [Example 534, (S)-8-chloro-6-(((6-fluoro-2-methylpyridin-3-yl)(1-(1-(trifluoromethyl)cyclopropyl)-1H-1,2,3-triazol-4-yl)methyl)amino)-4-((3-hydroxy-2,2-dimethylpropyl)amino)-quinoline-3-carbonitrile], in that order: 20 nM and 394 nM.
For `CC(C)(C)CNc1c(C#N)cnc2c(Cl)cc(N[C@H](c3cn(C4(C(F)F)CC4)nn3)c3cccc4cnccc34)cc12` [Example 536, (S)-8-chloro-6-(((1-(1-(difluoromethyl)-cyclopropyl)-1H-1,2,3-triazol-4-yl)(isoquinolin-5-yl)methyl)amino)-4-(neopentylamino)quinoline-3-carbonitrile], in that order: 3 nM and 51 nM.
`CC(C)(C)CNc1c(C#N)cnc2c(Cl)cc(N[C@H](c3cn(C4(C(F)F)CC4)nn3)c3cccc4ccncc34)cc12` [Example 537, (S)-8-chloro-6-(((1-(1-(difluoromethyl)-cyclopropyl)-1H-1,2,3-triazol-4-yl)(isoquinolin-8-yl)methyl)amino)-4-(neopentylamino)quinoline-3-carbonitrile]: the IC50 against Human Cot (IC50 HTRF) worked out at 2 nM. The EC50 in the assay with TNFα (setting [1]) turned out to be 75 nM.
For `CC(C)(C)CNc1c(C#N)cnc2c(Cl)cc(N[C@H](c3cn(C4(C(F)F)CC4)nn3)c3cccn4nccc34)cc12` [Example 538, (S)-8-chloro-6-(((1-(1-(difluoromethyl)-cyclopropyl)-1H-1,2,3-triazol-4-yl)(pyrazolo[1,5-a]pyridin-4-yl)methyl)amino)-4-(neopentylamino)-quinoline-3-carbonitrile], in that order: 5 nM and 109 nM.
For `Cc1nc(F)ccc1[C@H](Nc1cc(Cl)c2ncc(C#N)c(N[C@@H]3CCOCC3(C)C)c2c1)c1cn(C2(C(F)F)CC2)nn1` [Example 539, 8-chloro-6-(((S)-(1-(1-(difluoromethyl)-cyclopropyl)-1H-1,2,3-triazol-4-yl)(6-fluoro-2-methylpyridin-3-yl)methyl)-amino)-4-(((R)-3,3-dimethyltetrahydro-2H-pyran-4-yl)amino)quinoline-3-carbonitrile], in that order: 1 nM and 12 nM.
For `Cc1nc(F)ccc1[C@H](Nc1cc(Cl)c2ncc(C#N)c(N[C@H]3CCOCC3(C)C)c2c1)c1cn(C2(C(F)F)CC2)nn1` [Example 540, 8-chloro-6-(((S)-(1-(1-(difluoromethyl)-cyclopropyl)-1H-1,2,3-triazol-4-yl)(6-fluoro-2-methylpyridin-3-yl)methyl)-amino)-4-(((S)-3,3-dimethyltetrahydro-2H-pyran-4-yl)amino)quinoline-3-carbonitrile], in that order: 50 nM and 760 nM.
For the compound `Cc1nc(F)ccc1[C@H](Nc1cc(Cl)c2ncc(C#N)c(NCC(C)(C)C)c2c1)c1cn(C(C)(C)C(F)(F)F)nn1` [Example 541, (S)-8-chloro-6-(((6-fluoro-2-methyl-pyridin-3-yl)(1-(1,1,1-trifluoro-2-methylpropan-2-yl)-1H-1,2,3-triazol-4-yl)methyl)amino)-4-(neopentylamino)-quinoline-3-carbonitrile], it took 6 nM to reach half-maximal inhibition at Human Cot (IC50 HTRF) (IC50). Besides, the EC50 in the assay with TNFα (setting [1]) came out at 180 nM.
Compound `Cn1nnc2cccc([C@H](Nc3cc(Cl)c4ncc(C#N)c(NCC(C)(C)C)c4c3)c3cn(C4(C(F)F)CC4)nn3)c21` [Example 542, (S)-8-chloro-6-(((1-(1-(difluoromethyl)-cyclopropyl)-1H-1,2,3-triazol-4-yl)(1-methyl-1H-benzo[d][1,2,3]triazol-7-yl)methyl)amino)-4-(neopentylamino)-quinoline-3-carbonitrile] registered a half-maximal inhibitory concentration (IC50) at Human Cot (IC50 HTRF) of 2 nM. Further, the 50% effective concentration (EC50) in the assay with TNFα (setting [1]) is 40 nM.
Consider `Cn1cc2c([C@H](Nc3cc(Cl)c4ncc(C#N)c(NCC(C)(C)C)c4c3)c3cn(C4(C(F)(F)F)CC4)nn3)cccc2n1` [Example 544, (S)-8-chloro-6-(((2-methyl-2H-indazol-4-yl)(1-(1-(trifluoromethyl)cyclopropyl)-1H-1,2,3-triazol-4-yl)methyl)amino)-4-(neopentylamino)quinoline-3-carbonitrile], for which the concentration for half-maximal inhibition (IC50) on Human Cot (IC50 HTRF) worked out at 8 nM. Besides, the EC50 in the assay with TNFα (setting [1]) is 210 nM.
For `Cc1nc(F)ccc1[C@H](Nc1cc(Cl)c2ncc(C#N)c(NCC(C)(C)C)c2c1)c1cn(C(C)(C)C(F)F)nn1` [Example 545, (S)-8-chloro-6-(((1-(1,1-difluoro-2-methylpropan-2-yl)-1H-1,2,3-triazol-4-yl)(6-fluoro-2-methylpyridin-3-yl)methyl)-amino)-4-(neopentylamino)quinoline-3-carbonitrile], in that order: 4 nM and 108 nM.
For `Cc1nc(F)ccc1[C@H](Nc1cc(Cl)c2ncc(C#N)c(NCC(C)(C)C)c2c1)c1cn([C@@H](C)CF)nn1` [Example 546, 8-chloro-6-(((S)-(6-fluoro-2-methylpyridin-3-yl)(1-((S)-1-fluoropropan-2-yl)-1H-1,2,3-triazol-4-yl)methyl)amino)-4-(neopentylamino)quinoline-3-carbonitrile], in that order: 2 nM and 42 nM.
As for `Cc1nc(F)ccc1[C@H](Nc1cc(Cl)c2ncc(C#N)c(NCC(C)(C)C)c2c1)c1cn(C2(C3CC3)CC2)nn1` [Example 547], the IC50 at Human Cot (read-out: IC50 HTRF) came out at 2 nM. Moreover, the EC50 with TNFα (setting [2]) was 33 nM.
The compound `Cc1nc(F)ccc1[C@H](Nc1cc(Cl)c2ncc(C#N)c(NCC(C)(C)C)c2c1)c1cn(C2(C(F)(F)F)COC2)nn1` [Example 548, (S)-8-chloro-6-(((6-fluoro-2-methylpyridin-3-yl)(1-(3-(trifluoromethyl)oxetan-3-yl)-1H-1,2,3-triazol-4-yl)methyl)amino)-4-(neopentylamino)quinoline-3-carbonitrile] displayed a half-maximal inhibitory concentration (IC50) against Human Cot (IC50 HTRF) of 8 nM. Also, the half-maximal effective concentration (EC50) in the assay with TNFα (setting [1]) came to 124 nM.
For `[2H]c1c([C@@H](Nc2cc(Cl)c3ncc(C#N)c(NCC(C)(C)C)c3c2)c2ccc(F)nc2C)nnn1C1(C(F)(F)F)CC1` [Example 549, (S)-8-chloro-6-(((6-fluoro-2-methylpyridin-3-yl)(1-(1-(trifluoromethyl)cyclopropyl)-1H-1,2,3-triazol-4-yl-5-d)methyl)amino)-4-(neopentylamino)quinoline-3-carbonitrile], in that order: 4 nM and 68 nM.
For `CC(C)(C)CNc1c(C#N)cnc2c(C#N)cc(N[C@H](c3cn(C4(C(F)F)CC4)nn3)c3cccc4ncccc34)cc12` [Example 550, (S)-6-(((1-(1-(difluoromethyl)cyclopropyl)-1H-1,2,3-triazol-4-yl)(quinolin-5-yl)methyl)amino)-4-(neopentylamino)-quinoline-3,8-dicarbonitrile], in that order: 2 nM and 29 nM.
For `CC(C)(C)CNc1c(C#N)cnc2c(C#N)cc(N[C@H](c3cn(C4(C(F)F)CC4)nn3)c3cccc4ccncc34)cc12` [Example 552, (S)-6-(((1-(1-(difluoromethyl)cyclopropyl)-1H-1,2,3-triazol-4-yl)(isoquinolin-8-yl)methyl)-amino)-4-(neopentylamino)quinoline-3,8-dicarbonitrile], in that order: 2 nM and 26 nM.

These data come from US11066414B2, “Cot modulators and methods of use thereof” (Gilead Sciences, Inc., priority 2015, dated 2021).
